The supplement of paper PMC12613149

Assays:
[1] = collision cross section (TIMS, N2 drift gas) of the primary ion; higher = larger gas-phase ion size
[2] = reversed-phase LC retention time (C18, 15 min MeOH gradient); higher = more hydrophobic / later elution
[3] = ionization mode: ESI+, ion species: [M+H]+
[4] = ionization mode: ESI-, ion species: [M-H]-
[5] = ionization mode: ESI+, ion species: [M]+

Row | Compound | collision cross section [1, 3] [Å²] | reversed-phase LC retention time [2, 3] [min] | collision cross section [1, 4] [Å²] | reversed-phase LC retention time [2, 4] [min] | collision cross section [1, 5] [Å²] | reversed-phase LC retention time [2, 5] [min]
1 | Clc1ccc2c(c1)CCc1cccnc1C2=C1CCNCC1 [Desloratadine] | 176.94 | 11.7 |  |  |  | 
2 | Cc1cc(=O)oc2cc(N)ccc12 [7-Amino-4-methylcoumarin] | 131.77 | 9.22 |  |  |  | 
3 | COc1nc(C)nc(NC(=O)NS(=O)(=O)c2ccccc2Cl)n1 [Chlorsulfuron] | 177.23 | 12.1 | 177.5 | 9.09 |  | 
4 | NC(=O)C1(N2CCCCC2)CCN(CCCC(=O)c2ccc(F)cc2)CC1 [Pipamperone] | 194.74 | 9.13 |  |  |  | 
5 | Oc1cc(-c2ccc(Cl)cc2)ccc1Cl [3-Hydroxy-4,4'-dichlorobiphenyl] |  |  | 149.63 | 16.1 |  | 
6 | Cn1c(=O)c2c(ncn2C)n(C)c1=O [Caffeine] | 139.07 | 7.7 |  |  |  | 
7 | O=C(O)CCCCCCCCCCC(=O)O [Dodecanedioic acid] | 156.8 | 14.7 | 153.38 | 8.22 |  | 
8 | O=C(O)C1C(C(=O)O)C2(Cl)C(Cl)=C(Cl)C1(Cl)C2(Cl)Cl (configuration not stated) |  |  | 159.01 | 10.3 |  | 
9 | O=C(Nc1ccccc1)N(Cc1ccc(Cl)cc1)C1CCCC1 [Pencycuron] | 181.17 | 16.1 |  |  |  | 
10 | Nc1cccc2cc(S(=O)(=O)O)ccc12 [5-Aminonaphthalene-2-sulfonic acid] |  |  | 147.46 | 4.88 |  | 
11 | Oc1ccc(C(c2ccccc2)(c2ccccc2)c2ccc(O)cc2)cc1 [Bisphenol BP] |  |  | 196.58 | 16 |  | 
12 | c1ccc2[nH]nnc2c1 [Benzotriazole] | 119.49 | 7.82 |  |  |  | 
13 | c1ccc2sc(NC3CCCCC3)nc2c1 [N-Cyclohexyl-2-benzothiazole-amine] | 155.21 | 14.1 | 157 | 15.9 |  | 
14 | Fc1ccc(C2(Cn3cncn3)OC2c2ccccc2Cl)cc1 (configuration not stated) [Epoxiconazole] | 176.09 | 14.9 |  |  |  | 
15 | Cn1c(N)nc2c3cccnc3ccc21 [2-Amino-3-methyl-imidazo[4,5-f]quinoline (IQ)] | 138.89 | 6.04 | 139.48 | 8.79 |  | 
16 | OCCN1CCN(CC/C=C2/c3ccccc3Sc3ccc(C(F)(F)F)cc32)CC1 [Flupentixol_1] | 200.91 | 14.9 |  |  |  | 
17 | Cc1cc(-c2ccc(N)c(C)c2)ccc1N [o-Tolidine] | 165.69 | 7.76 |  |  |  | 
18 | NC(=O)N1c2ccccc2CC(=O)c2ccccc21 [Oxcarbazepine] | 155.46 | 10.7 |  |  |  | 

Continued, values first:

Row | collision cross section [1, 3] [Å²] | reversed-phase LC retention time [2, 3] [min] | collision cross section [1, 4] [Å²] | reversed-phase LC retention time [2, 4] [min] | collision cross section [1, 5] [Å²] | reversed-phase LC retention time [2, 5] [min] | Compound
19 | 174.76 | 15.7 |  |  |  |  | CCCN(CCOc1c(Cl)cc(Cl)cc1Cl)C(=O)NC=O
20 | 147.68 | 10.6 |  |  |  |  | COc1cc2ccc(=O)oc2c(OC)c1OC [Dimethylfraxetin]
21 | 168.6 | 6.09 | 181.06 | 10.1 |  |  | CN/C(=C\[N+](=O)[O-])NCCSCc1ccc(CN(C)C)o1 [Ranitidine]
22 | 148.66 | 14.2 |  |  |  |  | CCOC(=O)c1ccc(N(C)C)cc1 [Ethyl 4-(dimethylamino)benzoate]
23 | 178.04 | 15.3 |  |  |  |  | CNC(=O)/C(=N/OC)c1ccccc1COc1cc(C)ccc1C [Dimoxystrobin]
24 | 158.65 | 13.7 |  |  |  |  | CCCCCCCCCCN(C)C [N,N-Dimethyldecylamine]
25 |  |  |  |  | 200.11 | 15.9 | CCCCCCCCCCCC(=O)NCCC[N+](C)(C)CC(=O)O [Lauramidopropylbetaine]
26 |  |  | 137.91 | 0.96 |  |  | O=C(O)c1cc(C(=O)O)cc([N+](=O)[O-])c1 [5-Nitroisophthalic acid]
